Experimental data from patent publication US10842776B2, “Hycanthone derivatives and Primaquine derivatives for use in the prevention and/or the treatment of disorders associated to gammaherpesvirus” (priority 2016, dated 2020).
Structures can show the parent of a compound that is named as a salt.

Key:
[1] = test system: MRC-5, primary cutaneous fibroblasts, primary keratinocytes, Hela P4; details: human, 48 h, 10 μM
Description: (§1) HHV8 infected cell line (BC3), HHV8-non infected cell lines (MRC5, HeLa P4), and HHV8 non infected primary cells (human keratinocytes, human cutaneous fibroblasts, B-type lymphocytes CD19+) were grown in vitro and treated by either Primaquine diphosphate, Hycanthone, Paclitaxel or Doxorubicin hydrochloride at a concentration of 10 μM. Cell viability was evaluated by ATP quantitation 48 h after the treatment started.
(§2) The effect of Primaquine diphosphate (Sigma), Hycanthone (Sigma), Paclitaxel (Sigma), and Doxorubicin (Sigma) were evaluated on relevant primary cells and cell lines that are or not infected by HHV-8.
• BC-3: cell line established from pleural effusion from a human immunodeficiency virus (HIV) negative patient diagnosed with primary effusion lymphoma (PEL). BC-3 cell line is HHV8 infected but not infected for Epstein-Barr virus (EBV) as well as for herpes simplex virus 1 &2 (HSV-1 & HSV-2) and cytomegalovirus (CMV) (ATCC), • MRC5: Cell line derived from normal lung tissue of a […] fetus (ATCC), • Primary cutaneous fibroblasts (Lonza ref CC 25 11), • Primary keratinocytes (Lonza ref 00 192 627), • HeLa: immortal cell line established from an adult human cervical cancer HVP-18 infected (NIH Reagent program), • Primary B-type lymphocytes CD19+: primary B cells positively selected using CD19 microbeads (Miltenyi).
(§3) Cells were treated in vitro with either Primaquine diphosphate (Sigma), Hycanthone (Sigma), Paclitaxel (Sigma), or Doxorubicin hydrochloride (Sigma) at a concentration of 10 μM. The viability of the cells was evaluated 48 h after the treatment started as previously described with the Kit CellTiter Glo (Promega).

[2] = test system: BC-3 cells (HHV8 infected PEL cell line); assay: Cell viability (ATP quantitation, CellTiter Glo) of HHV8-infected cells; format: cell-based, human; details: 10 μM, 48 h, HHV8 infected BC-3 cells
Description: as §1, §2
• BC-3: cell line established from pleural effusion from a human immunodeficiency virus (HIV) negative patient diagnosed with primary effusion lymphoma (PEL). […]
as §3

[3] = test system: BC-3 xenograft (PEL); assay: Primary Effusion Lymphoma xenograft model in immunodeficient NOD/SCID mice; format: in vivo
Description: (§4) Primaquine efficacy was evaluated using a mice model of immunodeficient NOD/SCID mice. […] Mice weight was measured at various times (D6, D13, D20 and D24) after the treatment started.
Note the large growth tumor in the abdomen of the mouse that received BC-3 xenograft (“BC-3”) but not treated by primaquine.
At baseline, mice are inoculated with a PEL cell line (BC-3) by intraperitoneal (i.p) injection. One day after injection of BC-3 cells, Primaquine is administered by intraperitoneal injection, and then 3 times a week during 8 weeks. Tumoral burden is evaluated by the measure of weight every weeks (References: T. Matsuno, 2012: Diethyldithiocarbamate induces apoptosis in HHV-8-infected primary effusion lymphoma cells via inhibition of the NF-κB pathway; K. A. Sarosiek, 2010: Efficacy of bortezomib in a direct xenograft model of primary effusion lymphoma; W. Wu, 2005: Inhibition of HHV-8/KSHV infected primary effusion lymphomas in NOD/SCID mice by azidothymidine and interferon).
The experiment was conducted on 24 NOD/SCID mice (4 groups of 6 mice) (Charles River laboratories): 1 group (Mock) without xenograft (no BC-3) and non-treated (no Primaquine), 1 group with xenograft (BC-3) and non-treated (no Primaquine), 1 group with xenograft (BC-3) and treated (Primaquine 12.5 mg/kg; (Sigma), 1 group without xenograft and treated (Primaquine 12.5 mg/kg; (Sigma). […]

[4] = Toxicity of Primaquine in NOD/SCID mice; format: in vivo; details: 12.5 mg/kg, after 24 days of treatment
Description: as §4
The experiment was conducted on 24 NOD/SCID mice (4 groups of 6 mice) (Charles River laboratories): 1 group (Mock) without xenograft (no BC-3) and non-treated (no Primaquine), 1 group with xenograft (BC-3) and non-treated (no Primaquine), 1 group with xenograft (BC-3) and treated (Primaquine 12.5 mg/kg; (Sigma), 1 group without xenograft and treated (Primaquine 12.5 mg/kg; (Sigma).
At the beginning of the experiments, the mice were 6 weeks old according to previous experiments conducted and available in the literature. Animals had 7 to 10 days of acclimatization before experiment. At baseline, 20.10^6 of BC3 cells in 500 μL of PBS were injected by i.p. in order to induce the development of PEL. Tumor growth is correlated with the total gain of weight. The consequent gain of weight should not exceed 150% of the baseline weight. For the group of mice […] by Primaquine, each mice received 1 i.p injection of 500 μL of PBS instead of BC-3 cells in order to evaluate the toxicity of Primaquine in mice.

[5] = test system: phosphorylation of IκB (NF-κB pathway) in BC-3 PEL cell line; assay: IκB phosphorylation, western blot; format: cell-based, human; details: 10 μM, pre-treated for 6 and 12 h, BC-3 cells
Description: BC-3 cells were pre-treated for 6 h (A) and 12 h (B) with primaquine and hycanthone at 10 μM. DDTC was used as positive control. Whole-cell lysates were prepared as described in Materials and Methods of example F and used for p-IκB western blot analysis by using the appropriate antibodies. […] Treatment of BC-3 cells with DDTC (diethyldithiocarbamate) was carried out in the same conditions and served as a positive control.
BC-3, an HHV-8 positive lymphoblastic cell line (ATCC CRL-2277) and RAMOS, an human Burkitt's lymphoma cell line (ATCC CRL-1596), were routinely maintained in RPMI 1640 medium supplemented with 10% fetal heat-inactivated bovine serum (FBS), and antibiotics (Sigma Chemical Co., St. Louis, Mo.) in a 5% CO2 incubator at 37° C. To prepare whole cell extracts, the cells were washed with cold phosphate-buffered saline twice and lysed in lysis RIPA buffer containing 10 mM Tris-HCl, pH 8.0, 140 mM NaCl, 1% Triton X-100, 1 mM EDTA, 0.5 mM EGTA, 0.1% sodium deoxycholate, 0.1% SDS, supplemented with protease inhibitor mixture (1 mM PMSF, 10 mM β-glycerophosphate, 10 mM NaF, 1 mM sodium orthovanadate, 1 mM sodium pyrophosphate), (ThermoFisher Scientific) at 4° C. for 30 min. […] The supernatants were collected as whole cell extracts, and protein concentration was determined by the Lowry method. […]

[6] = test system: caspase 3/7 activity in BC-3 cells; assay: Induction of caspase 3/7 activity (apoptosis); format: cell-based, human; details: 10 μM, 24 h
Description: Apoptosis induction was evaluated 24 h after the treatment started by measuring caspase 3/7 activity in treated- or untreated control BC-3 cells. […] DDTC is used as a positive inducer of caspase 3/7 activity in BC-3 cell lines (Matsuno et al., 2012, Int J Oncol 40: 1071-1078).
BC-3 cells (10000 cells/well) were incubated 24 h with a concentration of 10 μM of Primaquine diphosphate (Sigma), Hycanthone (Sigma), or Diethyldithiocarbamate (DDTC) (Sigma), and then lysed and a 3/7 Reagent (DEVD) is added. Lysed cells release caspase-3 or -7, which cleave the DEVD substrate from the aminoluciferin. Finally, the oxidation of the luciferin by luciferase produces light, which is measured by a luminometer. The amount of light produced is proportional to the amount of caspase-3 or -7 activity. […] (DDTC) (Sigma) known to induce apoptosis in BC-3 cells via the inhibition of NF-κB is used as positive control.

[7] = test system: BC-3 cells; assay: Cell growth inhibition; format: cell-based, human; details: 10 μM, D0 to D3, versus BC3 cells cultured in standard conditions
Description: Cell growth was measured every day from the day of treatment (DO) until 3 days after the treatment started (D3).
BC-3 cells were grown in RPMI-1640 GlutaMAX (Gibco) supplemented with 10% fetal bovine serum and antibiotics (amikacine and vancomycine) during 3 days. The number of cells per milliliter is measured at baseline, DO, D2 and D3. BC-3 were cultured with and without primaquine and Hycanthone.

SMILES	toxicity (cell death) in other cell types non infected by HHV8 [1]	cell death in BC-3 cells [2]	reduction of the median gain of weight ([3]; 12.5 mg/kg i.p. 3 times a week, D24, versus untreated mice with BC-3 xenograft)	growth tumor in the abdomen ([3]; 12.5 mg/kg, after 24 days of treatment, picture versus untreated BC-3 mouse)	toxicity in mice [4]	phosphorylation of IκB [5]	apoptosis (caspases 3/7 activation) versus non-treated control [6]	cellular growth of BC3 [7]
COc1cccc2c1C(=O)c1c(O)c3c(c(O)c1C2=O)C[C@@](O)(C(=O)CO)C[C@@H]3O[C@H]1C[C@H](N)[C@H](O)[C@H](C)O1 [doxorubicin, Doxorubicin hydrochloride]	> 20%	induced cell death						
COc1cc(NC(C)CCCN)c2ncccc2c1 (stereo not drawn) [Primaquine diphosphate, Primaquine]			39.4%	reduced growth tumor	did not show any toxicity	dramatically reduced	at least as equivalent of that induced by DDTC	inhibited cellular growth
CCN(CC)C(=S)S [DDTC, Diethyldithiocarbamate]							4 times	
CC(=O)O[C@H]1C(=O)[C@@]2(C)[C@H]([C@H](OC(=O)c3ccccc3)[C@]3(O)C[C@H](OC(=O)[C@H](O)[C@@H](NC(=O)c4ccccc4)c4ccccc4)C(C)=C1C3(C)C)[C@]1(OC(C)=O)CO[C@@H]1C[C@@H]2O [Paclitaxel]	> 20%	induced cell death						
CCN(CC)CCNc1ccc(CO)c2sc3ccccc3c(=O)c12 [Hycanthone]	< 20%					dramatically reduced	at least as equivalent of that induced by DDTC	inhibited cellular growth
